Results on five compounds are retold here after PMC3828397, “Characterization of PfTrxR inhibitors using antimalarial assays and in silico techniques” (Chemistry Central Journal, 2013).

The subject of test [1] is 3T3 cells. Description: Cytotoxicity assay (AlamarBlue). In kind it is cell-based. For orientation: Resazurin is reduced to fluorescent resorufin, in cell work by metabolically active cells.
Test [2] relates to PfTrxR. As to conditions: read-out: Pf TrxR IC50; cited from earlier work.
Test [3] has as its system Human erythrocytes. Kind of test: ROS assay in DCFDA loaded erythrocytes. In kind it is cell-based.
For test [4], the system named is P. falciparum chloroquine resistant (W2, IndoChina) strain. Kind of test: In vitro antimalarial assay (SYBR green), W2 strain. In kind it is cell-based, Plasmodium falciparum.
In test [5] the test system is P. falciparum CQ-sensitive (D6) and CQ-resistant (W2) strains. Description: In vitro antimalarial assay, statements covering both strains. In kind it is cell-based, Plasmodium falciparum. As to conditions: for IC50: Plasmodium falciparum, strain not given, read-out: antimalarial activity IC50 (abstract).
For test [6], the system named is P. falciparum chloroquine sensitive (D6, Sierra Leone) strain. Kind of test: In vitro antimalarial assay (SYBR green), D6 strain. It counts as cell-based, Plasmodium falciparum.
Test [7] has as its system hTrxR. To be noted: read-out: Exptl. IC50, hTrxR; cited from earlier work.
The mark [8] stands for this setting: Mus musculus, NIH3T3, 3T3 cells, AlamarBlue, NC: no cytotoxicity up to concentration much higher than the antiplasmodial concentration, read-out: 3T3 IC50.
Where [9] appears, read: test compounds 50 μM, DCFDA fluorescence monitored for 120 min.
Setting [10] is: Plasmodium falciparum, W2, W2 clone, mean ± S.D. of triplicate observations, read-out: Pf (W2) CQ resistance IC50.
[11] abbreviates: against the two strains of P. falciparum.
Setting [12] is: Plasmodium falciparum, D6 clone, mean ± S.D. of triplicate observations, read-out: Pf (D6) CQ sensitive IC50.
Setting [13] is: Plasmodium falciparum, W2, read-out: Pf (W2) CQ resistance IC50.
Where [14] appears, read: Plasmodium falciparum, D6, read-out: Pf (D6) CQ sensitive IC50.

Like-named read-outs stand apart in the source and are kept apart here.

A word on the IC50: it is the concentration that inhibits the measured activity by half. With `O=C1C=CC(=O)c2ccccc21` [1,4-NQ, 1,4-napthoquinone], the IC50 in test [1] (setting [8]) was 38.5 ± 0.76 µM; in test [2] it was 0.75 µM; in test [4] (setting [10]) it was below 20 µM; in test [4] (W2 clone, mean ± S.D. of triplicate observations, read-out: Pf (W2) CQ resistance IC50) it was 16.7 ± 3.7 µM; in test [5], below 20 µM; in test [6] (setting [12]) it was 8.9 ± 2.3 µM. Further, in test [3] (setting [9]), the “intraerythrocytic formation of ROS (oxidative stress)” value (“intraerythrocytic formation of ROS” for short) was “significant increase”. Further, the “antimalarial activity in words” value in test [5] (setting [11]) is reported as “most active”.
Take `CC1=CC(=O)c2ccccc2C1=O` [MD, menadione]: the IC50 is 70.5 ± 3.69 µM in test [1] (setting [8]); 1.6 µM in test [2]; 28.3 ± 5.6 µM in test [4] (setting [10]); below 20 µM in test [5]; 18.5 ± 1.9 µM in test [6] (setting [12]). In test [3] (setting [9]), the “intraerythrocytic formation of ROS” value is reported as “significant increase”. Besides, in test [5] (setting [11]), the “antimalarial activity in words” value is on record as “moderately active”.
Take `CN(C)CCC(=O)c1ccccc1` [3-DAP, 3-dimethylaminopropiophenone]: the IC50 in test [1] (Mus musculus, NIH3T3, read-out: 3T3 IC50) is above 100 µM; in test [2], 15.4 µM; in test [4] (setting [13]), above 100 µM; in test [6] (setting [14]), above 100 µM. For the same compound, in test [3], the “intraerythrocytic formation of ROS” value is on record as “did not cause the production of ROS”. In addition, the “antimalarial activity in words” value in test [5] (setting [11]) was “inactive”.
Turning to `CCN(CC)CCCC(C)Nc1ccnc2cc(Cl)ccc12` (centres unmarked) [CQ, chloroquine], the figures for the concentration for half-maximal inhibition (IC50) in test [4] (setting [13]) and in test [6] (setting [14]) were 0.44 ± 0.045 µM and 0.055 ± 0.006 µM, respectively.
Consider 4-nitrobenzothiadiazole [4-NBT], for which the IC50 was 80 ± 1.15 µM in test [1] (read-out: 3T3 IC50), 2 µM in test [2], 50 µM in test [7] and 8.3 ± 2.1 µM in test [6] (read-out: Pf (D6) CQ sensitive IC50). The “intraerythrocytic formation of ROS” value in test [3] was “significant increase”. Further, the “antimalarial activity in words” value in test [5] is “most active”.
